These results are taken from US9073880B2, “2-(2-phenylethenyl) 1,3-benzodiazepine derivatives useful for the treatment of cancer” (Yissum Research Development Company of the Hebrew …, priority 2010, dated 2015).

Experiment [1] deals with IRS1 and IRS2. The experiment can be described thus: IRS1 and IRS2 serine phosphorylation in A375 cells (western blot). The settings on record: melanoma A375 cells treated 4 hr, 1 and 3 μM; FIG. 4. The class given is cell-based, human. As for the experimental part: (§1) Tyrosine autophosphorylation of the β-subunit of IGF-1R as well as downstream signaling induced by IGF-1R were assayed in human breast cancer MCF7 cells and in melanoma A375 cells. Cells were seeded in 6-well plates (250,000 A375 cells/well and 300,000 MCF7 cells/well) and 24 hours later medium was replaced by serum-free medium (RPMI supplemented with 100 units/ml penicillin and 100 μg/ml streptomycin). MCF7 cells were exposed for 48 hr to compound 3 at 10 μM concentration, and then stimulated for 5 minutes with 50 ng/ml IGF-1, washed twice with PBS and lysed by boiling sample buffer (10% glycerol, 50 mM Tris-HCl, pH 6.8, 3% SDS, and 5% (3-mercaptoethanol). Equal amounts of protein per lane were separated by 8% SDS-PAGE and transferred to a nitrocellulose membrane (Sartorius AG). Phosphorylated proteins were immunoblotted with anti-phosphoIGF-1R (pIGF-1R), anti-phosphotyrosine-IRS1 (pY-IRS I) and anti-phospho(T308)Akt (pPKB) antibodies. Detection was performed with horseradish peroxidase-conjugated secondary antibody using the ECL system. […]
(§2) In addition, lysates of human melanoma A375 cells were prepared from cells exposed to compound 3 at 1 and 3 μM concentrations in serum-free medium. […] In this experiment the phosphorylated form of IRS1 on Serine-636/639 and the levels of IRS2 were detected as well.

In experiment [2] the test system is human prostate carcinoma PC3 cells. The experiment can be described thus: Cell proliferation, PC3 (Example 4). Format: cell-based. The settings on record: PC-3, PC3, prostate cancer, compound in 2-hydroxypropyl-β-cyclodextrin. As for the experimental part: (§3) Human ovary cancer A2780 cells lines were seeded at a density of 5000 cells/well, human melanoma A375 cells were plated at a density of 2,500 cells/well, human colon carcinoma HCT15 cells were plated at a density of 3,000 cells/well, human prostate carcinoma PC3 cells were plated at a density of 1,500 cells/well, human breast carcinoma MCF7 cells were plated at a density of 5,000 cells/well, human breast carcinoma MDA MB 468 cells were plated at a density of 6,000 cells/well, human myeloma U266, RPMI8226 and CAG cells were plated at a density of 10,000 cells/well. All cells were plated in 96-well plates in 90 μl growth medium containing 10% FCS, 100 units/ml penicillin and 100 μg/ml streptomycin. Compound 3 was added a day later in […] of 1% DMSO in DDW to obtain final concentrations of 0, 0.1, 0.3, 1, 3, and 10 μM. The final concentration of DMSO (0.1% DMSO) was kept constant in all samples. […] The optical density values were read at 630 nm in ELISA plate reader. Non-adhered cells were exposed to WST-1 reagent for 5 hours following 72 hours treatment with the inhibitors, and optical density values were read at 630 nm in ELISA plate reader. The data was analyzed in Microsoft Excel, using the vehicle control as 100% proliferation. […]

Experiment [3] relates to PKB/Akt. The experiment can be described thus: IGF1-induced PKB/Akt activation in A375 cells (Example 3). The class given is cell-based, human. The settings on record: melanoma A375 cells treated 4 hr, 1 and 3 μM; FIG. 4. How it is done: as §1, §2
Experiment [4] concerns human prostate carcinoma PC3 cells. The experiment can be described thus: Cell proliferation, PC3 (Example 2). The class given is cell-based. The settings on record: PC-3, 72 hours, 0.1% DMSO, methylene blue. As for the experimental part:
as §3

By IC50 is commonly meant the concentration that gives 50% inhibition. Regarding `O=c1c(O)cc2cnc(/C=C/c3cc(O)c(O)c(Br)c3)sc-2c1O` [Compound 3], the “IRS1 and IRS2 serine phosphorylation” value in experiment [1] is “induction of IRS1 and IRS2 serine phosphorylation”. Moreover, the figures for the IC50 in experiment [2] and in experiment [4] were 700 nM and 2000 nM, respectively. Besides, the “IGF1-induced PKB/Akt activation” value in experiment [3] is “inhibition of IGF1-induced PKB/Akt activation”.
